The values that follow come from patent US20040248765A1, “Tumour targeting prodrugs activated by metallo matrixproteinases” (priority 2001, published 2004).

Structures can show the parent of a compound that is named as a salt. Where two headings read alike, the source gives them in different places. Where a SMILES comes first, the peptide text is derived from it. [ ]: non-standard residue; d: D form. The star is where a group is joined. NH(CH2)3NH(1-anthraquinonyl) = O=C1c2ccccc2C(=O)c2c(NCCCN*)cccc21; Nle = CCCC[C@H](N)C(=O)O; Nva = CCC[C@H](N)C(=O)O; Mob = COc1ccc(C*)cc1

Data set [1] deals with MAC15A adenocarcinoma of the colon. In words: In vitro cytotoxicity against MAC15A adenocarcinoma of the colon, 96 hours exposure. Type of data set: cell-based.
Where [2] appears, read: Mus musculus, exposure time 96 hours, read-out: IC50.
Setting [3] is: exposure time 96 hours, read-out: IC50.

`N[C@@H](Cc1ccccc1)C(=O)N1CCC[C@H]1C(=O)NCCCNc1cccc2c1C(=O)c1ccccc1C2=O.O=C(O)C(F)(F)F` [Example 72, 1-[3-(L-Phenylalanyl-L-prolylamino)propylamino]anthraquinone trifluoroacetate] came in with a melting point of 118 to 120 °C. In data set [1] (Mus musculus, 96 h), this compound had a concentration for half-maximal inhibition (IC50) of 3 µM.
For the compound `CC(C)C[C@H](NC(=O)[C@H](C)NC(=O)[C@H](C)N)C(=O)NCC(=O)N[C@@H](CC(C)C)C(=O)N1CCC[C@@H]1C(=O)NCCCNc1cccc2c1C(=O)c1ccccc1C2=O.O=C(O)C(F)(F)F` [Example 14, 1-[3-(L-Alanyl-L-alanyl-L-leucyl-glycyl-L-leucyl-D-prolylamino)-propylamino]anthraquinone trifluoroacetate], the melting point came out at 132 °C. For the same compound, the half-inhibitory concentration (IC50) in data set [1] (setting [2]) was found to be 38 µM.
As to `CC(C)C[C@H](NC(=O)CNC(=O)[C@@H](N)CC(C)C)C(=O)N1CCC[C@@H]1C(=O)NCCCNc1cccc2c1C(=O)c1ccccc1C2=O` [Example 12, 1-[3-(L-Leucyl-glycyl-L-leucyl-D-prolylamino)propylamino]-anthraquinone trifluoroacetate] (H-LGL[dP]-{NH(CH2)3NH(1-anthraquinonyl)}), the IC50 in data set [1] (Mus musculus, 96 h) stood at 30 µM.
Regarding `CC[C@H](C)[C@H](NC(=O)[C@@H](N)Cc1ccccc1)C(=O)NCC(=O)N[C@@H](Cc1ccccc1)C(=O)N1CCC[C@H]1C(=O)NCCCNc1cccc2c1C(=O)c1ccccc1C2=O.O=C(O)C(F)(F)F` [Example 75, 1-[3-(L-Phenylalanyl-L-isoleucyl-glycyl-L-phenylalanyl-L-prolylamino)-propylamino]anthraquinone trifluoroacetate], the melting point lay in the range of 132 to 136 °C. In addition, the half-maximal inhibitory concentration (IC50) in data set [1] (setting [2]) amounted to 20 µM.
Compound `NCC(=O)N[C@@H](Cc1ccccc1)C(=O)N1CCC[C@H]1C(=O)NCCCNc1cccc2c1C(=O)c1ccccc1C2=O.O=C(O)C(F)(F)F` [Example 73, 1-[3-(Glycyl-L-phenylalanyl-L-prolylamino)propylamino]anthraquinone trifluoroacetate] showed a melting point of 129 °C. The midpoint of inhibition in data set [1] (Mus musculus, 96 h), the IC50, lay at 2.5 µM.
In the case of `CC(C)C[C@H](N)C(=O)N1CCC[C@@H]1C(=O)NCCCNc1cccc2c1C(=O)c1ccccc1C2=O` [Example 10, 1-[3-(L-Leucyl-D-prolylamino)propylamino]anthraquinone trifluoroacetate], the IC50 in data set [1] (Mus musculus, 96 h) amounted to 7 µM.
As for `CC(C)C[C@H](NC(=O)[C@H](C)NC(=O)[C@H](C)NC(=O)[C@@H](C)N)C(=O)NCC(=O)N[C@@H](CC(C)C)C(=O)N1CCC[C@@H]1C(=O)NCCCNc1cccc2c1C(=O)c1ccccc1C2=O.O=C(O)C(F)(F)F` [Example 15, 1-[3-(D-Alanyl-L-alanyl-L-alanyl-L-leucyl-glycyl-L-leucyl-D-prolylamino)propylamino]anthraquinone trifluoroacetate] (H-[dA]AALGL[dP]-{NH(CH2)3NH(1-anthraquinonyl)}), the melting point was determined as 166 °C. In data set [1] (Mus musculus, 96 h), this compound had an IC50 of 40 µM.
`CC[C@H](C)[C@H](NC(=O)[C@H](Cc1ccccc1)NC(=O)[C@H](CC(C)C)NC(=O)[C@@H](C)N)C(=O)NCC(=O)N[C@@H](Cc1ccccc1)C(=O)N1CCC[C@H]1C(=O)NCCCNc1cccc2c1C(=O)c1ccccc1C2=O.O=C(O)C(F)(F)F` [Example 77, 1-[3-(D-Alanyl-L-Leucyl-L-Phenylalanyl-L-isoleucyl-glycyl-L-phenylalanyl-L-prolylamino)propylamino]anthraquinone trifluoroacetate] gave a melting point of 142 to 148 °C. For the same compound, the IC50 in data set [1] (setting [2]) was 24 µM.
The matching figures for `CCC[C@H](NC(=O)[C@@H](N)CCC)C(=O)NCC(=O)N[C@@H](CC(C)C)C(=O)N1CCC[C@H]1C(=O)NCCCNc1cccc2c1C(=O)c1ccccc1C2=O.O=C(O)C(F)(F)F` [Example 45, 1-[3-(L-Norvalyl-L-norvalyl-glycyl-L-leucyl-L-prolylamino)propyl-amino]anthraquinone trifluoroacetate] (H-[Nva][Nva]GLP-{NH(CH2)3NH(1-anthraquinonyl)}): 174 to 176 °C and 4 µM.
For the compound `CC(C)C[C@H](NC(=O)CN)C(=O)N1CCC[C@@H]1C(=O)NCCCNc1cccc2c1C(=O)c1ccccc1C2=O` [Example 11, 1-[3-(Glycyl-L-leucyl-D-prolylamino)propylamino]anthraquinone trifluoroacetate], the concentration for half-maximal inhibition (IC50) in data set [1] (Mus musculus, 96 h) stood at 22 µM.
For `CCC[C@H](NC(=O)[C@H](C)NC(=O)[C@@H](C)N)C(=O)N[C@@H](CCC)C(=O)NCC(=O)N[C@@H](CC(C)C)C(=O)N1CCC[C@H]1C(=O)NCCCNc1cccc2c1C(=O)c1ccccc1C2=O` [Example 47, 1-[3-(D-AlanyI-L-alanyl-L-norvalyl-L-norvalyl-glycyl-L-leucyl-L-prolylamino)propylamino]anthraquinone trifluoroacetate] (H-[dA]A[Nva][Nva]GLP-{NH(CH2)3NH(1-anthraquinonyl)}), the half-inhibitory concentration (IC50) in data set [1] (setting [3]) amounted to 22 µM.
The compound `CC[C@H](C)[C@H](NC(=O)[C@H](Cc1ccccc1)NC(=O)[C@@H](N)CC(C)C)C(=O)NCC(=O)N[C@@H](Cc1ccccc1)C(=O)N1CCC[C@H]1C(=O)NCCCNc1cccc2c1C(=O)c1ccccc1C2=O.O=C(O)C(F)(F)F` [Example 76, 1-[3-(L-Leucyl-L-phenylalanyl-L-isoleucyl-glycyl-L-phenylalanyl-L-prolylamino)propylamino]anthraquinone trifluoroacetate] displayed a melting point of 166 to 178 °C. The half-maximal inhibitory concentration (IC50) in data set [1] (setting [2]) was determined as 21 µM.
The compound `CC(C)C[C@H](NC(=O)[C@H](Cc1ccccc1)NC(=O)CN)C(=O)NCC(=O)N1CCC[C@H]1C(=O)NCCCNc1cccc2c1C(=O)c1ccccc1C2=O.O=C(O)C(F)(F)F` registered a melting point of 157 °C.
For the compound `CC(C)C[C@H](N)C(=O)NCC(=O)N1CCC[C@H]1C(=O)NCCCNc1cccc2c1C(=O)c1ccccc1C2=O.O=C(O)C(F)(F)F`, the melting point fell in the range of 172 to 174 °C.
For the compound `COc1ccc(CSC[C@H](N)C(=O)NCC(=O)N[C@@H](CC(C)C)C(=O)N2CCC[C@H]2C(=O)NCCCNc2cccc3c2C(=O)c2ccccc2C3=O)cc1.O=C(O)C(F)(F)F` (H-C(Mob)GLP-{NH(CH2)3NH(1-anthraquinonyl)}), the melting point was determined as 182 °C.
In the case of `CC[C@H](C)[C@H](NC(=O)[C@H](Cc1ccccc1)NC(=O)[C@H](CC(C)C)NC(=O)[C@@H](C)N)C(=O)NCC(=O)N[C@@H](Cc1ccccc1)C(=O)N1CCC[C@@H]1C(=O)NCCCNc1cccc2c1C(=O)c1ccccc1C2=O.O=C(O)C(F)(F)F`, the melting point fell in the range of 144 to 146 °C.
Still for that read-out and setting: next, `CSC[C@H](NC(=O)[C@H](Cc1ccc(O)cc1)NC(=O)[C@H](C)NC(=O)[C@@H](C)N)C(=O)NCC(=O)N[C@@H](CC(C)C)C(=O)N1CCC[C@H]1C(=O)NCCCNc1cccc2c1C(=O)c1ccccc1C2=O.O=C(O)C(F)(F)F`: 195 °C.
For `CC(C)C[C@H](NC(=O)[C@@H](N)Cc1ccccc1)C(=O)NCC(=O)N1CCC[C@H]1C(=O)NCCCNc1cccc2c1C(=O)c1ccccc1C2=O.O=C(O)C(F)(F)F`, the melting point fell in the range of 164 to 168 °C.
The same measure, in the same setting: next, `CCC[C@H](NC(=O)CNC(=O)[C@H](CC(C)C)NC(=O)[C@H](C)NC(=O)[C@H](C)N)C(=O)N1CCC[C@H]1C(=O)NCCCNc1cccc2c1C(=O)c1ccccc1C2=O.O=C(O)C(F)(F)F` (H-AALG[Nva]P-{NH(CH2)3NH(1-anthraquinonyl)}): 188 °C; `CC[C@H](C)[C@H](N)C(=O)NCC(=O)N[C@@H](Cc1ccccc1)C(=O)N1CCC[C@@H]1C(=O)NCCCNc1cccc2c1C(=O)c1ccccc1C2=O.O=C(O)C(F)(F)F`: 120 to 126 °C.
For `CCC[C@H](NC(=O)[C@H](C)N)C(=O)N[C@@H](CCC)C(=O)NCC(=O)N[C@@H](CC(C)C)C(=O)N1CCC[C@H]1C(=O)NCCCNc1cccc2c1C(=O)c1ccccc1C2=O` [Example 46, 1-3-(L-Alanyl-L-norvalyl-L-norvalyl-glycyl-L-leucyl-L-prolylamino)-propylamino]anthraquinone trifluoroacetate] (H-A[Nva][Nva]GLP-{NH(CH2)3NH(1-anthraquinonyl)}), the 50% inhibitory concentration (IC50) in data set [1] (setting [3]) came to 8 µM.
`CCCC[C@H](N)C(=O)NCC(=O)N[C@@H](CC(C)C)C(=O)N1CCC[C@H]1C(=O)NCCCNc1cccc2c1C(=O)c1ccccc1C2=O.O=C(O)C(F)(F)F` (H-[Nle]GLP-{NH(CH2)3NH(1-anthraquinonyl)}) gave a melting point of 169 °C.
On the same count and under the same terms, the figure for `CCC[C@H](NC(=O)CN)C(=O)N1CCC[C@H]1C(=O)NCCCNc1cccc2c1C(=O)c1ccccc1C2=O.O=C(O)C(F)(F)F` is 196 °C; for `COc1ccc(CSC[C@H](NC(=O)[C@H](C)NC(=O)[C@H](C)N)C(=O)NCC(=O)N[C@@H](CC(C)C)C(=O)N2CCC[C@H]2C(=O)NCCCNc2cccc3c2C(=O)c2ccccc2C3=O)cc1.O=C(O)C(F)(F)F` (H-AAC(Mob)GLP-{NH(CH2)3NH(1-anthraquinonyl)}) it is 182 °C; for `CC(C)C[C@H](NC(=O)[C@@H](N)Cc1ccc(O)cc1)C(=O)NCC(=O)N[C@@H](CC(C)C)C(=O)N1CCC[C@H]1C(=O)NCCCNc1cccc2c1C(=O)c1ccccc1C2=O.O=C(O)C(F)(F)F` (H-YLGLP-{NH(CH2)3NH(1-anthraquinonyl)}) it is 184 to 188 °C.
The compound `CC[C@H](C)[C@H](NC(=O)[C@H](Cc1ccccc1)NC(=O)[C@@H](N)CC(C)C)C(=O)NCC(=O)N[C@@H](Cc1ccccc1)C(=O)N1CCC[C@@H]1C(=O)NCCCNc1cccc2c1C(=O)c1ccccc1C2=O.O=C(O)C(F)(F)F` came in with a melting point of 168 to 170 °C.
For the compound `CCC[C@H](NC(=O)[C@H](C)N)C(=O)N[C@@H](CC(C)C)C(=O)NCC(=O)N[C@@H](CC(C)C)C(=O)N1CCC[C@H]1C(=O)NCCCNc1cccc2c1C(=O)c1ccccc1C2=O.O=C(O)C(F)(F)F` (H-A[Nva]LGLP-{NH(CH2)3NH(1-anthraquinonyl)}), the melting point came to 192 °C.
The compound `CC(C)C[C@H](NC(=O)CNC(=O)[C@H](C)N)C(=O)N[C@@H](Cc1ccccc1)C(=O)N[C@@H](CC(C)C)C(=O)N1CCC[C@H]1C(=O)NCCCNc1cccc2c1C(=O)c1ccccc1C2=O.O=C(O)C(F)(F)F` (H-AGLFLP-{NH(CH2)3NH(1-anthraquinonyl)}) displayed a melting point of 186 °C.
